According to patent US12685735B2 (Foghorn Therapeutics Inc., priority 2020, dated 2026):
Read-outs that look alike come from different tables or passages of the source.

Legend:
BRG-1 = BRG-1 (Homo sapiens, UniProt P51532); assay: ATPase catalytic activity assay of BRG-1 (ADP-Glo); format: biochemical; details: for IC50: read-out: BRG1 IC50 (μM)*
Procedure, shortened: (§1)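 Luminescent ADP-Glo readout of ADP generated by ATP hydrolysis. Post-reaction: ATP depletion reagent, RT 40 min; detection reagent converting ADP→ATP, RT 60 min; luminescence read.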

BRM = BRM (Homo sapiens, UniProt P51531); assay: ATPase catalytic activity assay of BRM (ADP-Glo); format: biochemical; details: for IC50: read-out: BRM IC50 (μM)*
Sequence of BRM (P51531 whole entry): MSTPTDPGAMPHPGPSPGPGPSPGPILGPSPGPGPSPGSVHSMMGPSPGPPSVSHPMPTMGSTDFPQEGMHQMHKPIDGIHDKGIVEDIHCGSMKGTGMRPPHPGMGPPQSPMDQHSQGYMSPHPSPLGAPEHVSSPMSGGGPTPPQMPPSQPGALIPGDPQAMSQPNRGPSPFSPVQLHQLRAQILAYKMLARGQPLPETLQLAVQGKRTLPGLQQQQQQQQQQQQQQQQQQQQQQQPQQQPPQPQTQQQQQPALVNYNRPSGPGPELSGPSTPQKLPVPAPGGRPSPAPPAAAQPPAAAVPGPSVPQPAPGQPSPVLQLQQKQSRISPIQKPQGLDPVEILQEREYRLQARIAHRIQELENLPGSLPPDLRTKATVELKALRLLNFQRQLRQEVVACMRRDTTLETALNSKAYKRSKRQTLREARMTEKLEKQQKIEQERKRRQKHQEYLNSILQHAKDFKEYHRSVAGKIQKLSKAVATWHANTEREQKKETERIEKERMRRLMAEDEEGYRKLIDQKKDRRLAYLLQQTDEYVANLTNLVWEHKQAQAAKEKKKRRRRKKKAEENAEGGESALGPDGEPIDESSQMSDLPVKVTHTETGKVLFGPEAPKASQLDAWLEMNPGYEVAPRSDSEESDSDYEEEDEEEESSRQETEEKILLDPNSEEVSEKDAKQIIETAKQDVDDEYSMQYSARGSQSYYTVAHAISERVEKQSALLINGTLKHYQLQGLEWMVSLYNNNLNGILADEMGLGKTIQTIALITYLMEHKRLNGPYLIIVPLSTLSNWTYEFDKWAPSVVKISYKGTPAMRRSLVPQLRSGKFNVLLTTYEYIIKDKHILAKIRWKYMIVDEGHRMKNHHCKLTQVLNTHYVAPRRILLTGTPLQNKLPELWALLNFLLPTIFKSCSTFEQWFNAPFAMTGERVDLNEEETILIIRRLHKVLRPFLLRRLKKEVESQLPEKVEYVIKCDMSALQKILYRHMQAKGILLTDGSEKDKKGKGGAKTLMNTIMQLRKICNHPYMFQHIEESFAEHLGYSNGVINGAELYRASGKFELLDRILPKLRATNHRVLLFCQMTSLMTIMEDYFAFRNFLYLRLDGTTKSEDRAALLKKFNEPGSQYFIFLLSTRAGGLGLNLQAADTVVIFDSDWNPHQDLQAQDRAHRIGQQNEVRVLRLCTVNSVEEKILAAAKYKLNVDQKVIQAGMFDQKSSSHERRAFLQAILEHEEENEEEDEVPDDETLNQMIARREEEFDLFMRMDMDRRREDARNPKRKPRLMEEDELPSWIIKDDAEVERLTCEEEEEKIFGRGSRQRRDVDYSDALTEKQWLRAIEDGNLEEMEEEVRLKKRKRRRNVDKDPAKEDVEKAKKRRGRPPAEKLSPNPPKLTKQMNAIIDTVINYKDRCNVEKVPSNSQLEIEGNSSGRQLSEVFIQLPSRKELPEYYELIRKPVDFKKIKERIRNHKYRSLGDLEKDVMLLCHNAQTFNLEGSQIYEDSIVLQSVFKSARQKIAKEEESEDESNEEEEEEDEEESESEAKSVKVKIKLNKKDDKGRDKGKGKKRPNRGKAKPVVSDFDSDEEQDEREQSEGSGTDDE
Procedure, shortened: as §1

[1] = ATPase catalytic activity, ADP-Glo
[2] = ATPase catalytic activity, ADP-Glo, read-out: BRG1 Max % Inhibition
[3] = ATPase catalytic activity, ADP-Glo, 30 nM BRG-1, 400 μM ATP
[4] = ATPase catalytic activity, ADP-Glo, 30 nM BRG-1, 400 μM ATP, read-out: BRG1 Max % Inhibition

Sequence of BRG-1 (P51532 whole entry): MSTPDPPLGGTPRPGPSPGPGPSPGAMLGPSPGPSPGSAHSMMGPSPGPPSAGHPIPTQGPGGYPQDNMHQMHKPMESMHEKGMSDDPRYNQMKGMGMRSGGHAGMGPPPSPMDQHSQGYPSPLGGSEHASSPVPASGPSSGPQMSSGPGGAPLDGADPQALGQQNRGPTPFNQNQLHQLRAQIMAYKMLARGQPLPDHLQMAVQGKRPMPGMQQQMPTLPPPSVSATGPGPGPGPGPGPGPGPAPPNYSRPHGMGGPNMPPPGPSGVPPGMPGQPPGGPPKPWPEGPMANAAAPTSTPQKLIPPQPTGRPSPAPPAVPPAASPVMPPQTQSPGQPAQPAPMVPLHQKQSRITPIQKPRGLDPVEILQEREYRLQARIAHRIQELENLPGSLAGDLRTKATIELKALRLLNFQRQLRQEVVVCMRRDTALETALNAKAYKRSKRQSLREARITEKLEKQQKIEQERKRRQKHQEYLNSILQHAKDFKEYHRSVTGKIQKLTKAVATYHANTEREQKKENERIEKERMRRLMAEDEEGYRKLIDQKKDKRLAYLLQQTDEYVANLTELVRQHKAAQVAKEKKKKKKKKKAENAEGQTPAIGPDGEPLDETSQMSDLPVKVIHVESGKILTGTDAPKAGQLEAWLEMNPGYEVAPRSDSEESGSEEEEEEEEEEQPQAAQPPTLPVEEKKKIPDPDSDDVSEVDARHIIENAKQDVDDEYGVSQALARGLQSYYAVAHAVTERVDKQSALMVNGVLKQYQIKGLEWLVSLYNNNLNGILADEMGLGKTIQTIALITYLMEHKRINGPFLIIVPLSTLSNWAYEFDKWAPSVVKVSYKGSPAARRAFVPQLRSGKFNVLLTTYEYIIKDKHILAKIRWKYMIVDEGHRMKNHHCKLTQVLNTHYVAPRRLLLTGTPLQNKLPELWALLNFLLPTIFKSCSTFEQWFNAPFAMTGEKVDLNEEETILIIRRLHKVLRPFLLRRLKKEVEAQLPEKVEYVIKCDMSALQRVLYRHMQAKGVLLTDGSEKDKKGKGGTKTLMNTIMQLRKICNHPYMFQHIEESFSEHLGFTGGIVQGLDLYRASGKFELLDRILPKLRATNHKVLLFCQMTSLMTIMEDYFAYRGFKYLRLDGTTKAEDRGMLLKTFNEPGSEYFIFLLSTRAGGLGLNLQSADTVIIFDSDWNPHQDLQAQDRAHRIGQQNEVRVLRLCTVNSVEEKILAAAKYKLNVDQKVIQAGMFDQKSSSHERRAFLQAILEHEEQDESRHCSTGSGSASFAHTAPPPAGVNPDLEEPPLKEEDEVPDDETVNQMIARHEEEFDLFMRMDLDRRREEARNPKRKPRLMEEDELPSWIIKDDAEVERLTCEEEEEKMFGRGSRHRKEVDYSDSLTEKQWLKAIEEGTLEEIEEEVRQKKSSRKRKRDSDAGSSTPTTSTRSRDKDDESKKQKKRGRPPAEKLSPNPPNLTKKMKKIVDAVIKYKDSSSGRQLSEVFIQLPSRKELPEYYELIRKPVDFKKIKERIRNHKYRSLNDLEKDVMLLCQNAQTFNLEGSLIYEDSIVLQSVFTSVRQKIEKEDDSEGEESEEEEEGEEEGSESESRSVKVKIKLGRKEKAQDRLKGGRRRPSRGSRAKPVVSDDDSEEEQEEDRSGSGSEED

SMILES	IC50 (BRG-1; [1]) [µM]	Emax (BRG-1; [2]) [%]	BRM Max % Inhibition (BRM) [%]	IC50 (BRM) [µM]	BRG1 Max % Inhibition (BRG-1; [1]) [%]	Emax (BRG-1; read-out: BRG1 Max % Inhibition, ATPase catalytic activity, ADP-Glo) [%]	IC50 (BRG-1; [3]) [µM]	Emax (BRG-1; [4]) [%]	BRM Max % Inhibition (BRM; 30 nM BRM, 400 μM ATP) [%]	IC50 (BRM; 30 nM BRM, 400 μM ATP) [µM]
C[C@@H]1CN(c2cccc(-c3csc(NC(=O)CNC(=O)c4ccc5c(c4)C(C)(C#N)CNC5)n3)c2)C[C@H](C)O1 (stereo partly drawn) [Compound 310, 4-cyano-N-(2-((4-(3-((cis)-2,6-dimethylmorpholino)phenyl)thiazol-2-yl)amino)-2-oxoethyl)-4-methyl-1,2,3,4-tetrahydroisoquinoline-6-carboxamide]	0.1 to 1	> 95	>95	< 0.1	–	–	–	–	–	–
C[C@@H]1CN(c2cccc(-c3csc(NC(=O)CNC(=O)c4ccc5c(c4)[C@]4(CCC[C@@H]4O)CC5)n3)c2)C[C@H](C)O1 [Compound 189, (1S,2S)-N-(2-((4-(3-((cis)-2,6-dimethylmorpholino)phenyl)thiazol-2-yl)amino)-2-oxoethyl)-2-hydroxy-2′,3′-dihydrospiro[cyclopentane-1,1′-indene]-6′-carboxamide]	1 to 5	> 50	>90	0.1 to 1	–	–	–	–	–	–
C[C@@H]1CN(c2cccc(-c3csc(NC(=O)CNC(=O)c4ccc5c(c4)C(C)(C)COC5)n3)n2)C[C@H](C)O1 [Compound 282, N-(2-((4-(6-((cis)-2,6-dimethylmorpholino)pyridin-2-yl)thiazol-2-yl)amino)-2-oxoethyl)-4,4-dimethylisochromane-6-carboxamide]	0.1 to 1	> 95	>95	< 0.1	–	–	–	–	–	–
CC(C)S(=O)(=O)c1cccc(C(=O)NCC(=O)Nc2nc(-c3cccc(-c4ccnc(CO)c4)c3)cs2)c1 [Compound 26, N-(2-((4-(3-(2-(hydroxymethyl)pyridin-4-yl)phenyl)thiazol-2-yl)amino)-2-oxoethyl)-3-(isopropylsulfonyl)benzamide]	0.1 to 1	–	>90	< 0.1	–	–	–	–	–	–
C[C@@H]1CN(c2cccc(-c3csc(NC(=O)CNC(=O)c4ccc5c(c4)C(F)(C(F)F)COC5)n3)c2)C[C@H](C)O1 (stereo in doubt) [Compound 307, (R)-4-(difluoromethyl)-N-(2-((4-(3-((cis)-2,6-dimethylmorpholino)phenyl)thiazol-2-yl)amino)-2-oxoethyl)-4-fluoroisochromane-6-carboxamide]	< 0.1	> 95	>95	< 0.1	–	–	–	–	–	–
CC1(C#N)CCOc2ccc(C(=O)NCC(=O)Nc3nc(-c4cccc(C5COC5)c4)cs3)cc21 (stereo in doubt) [Compound 423, (S)-4-cyano-4-methyl-N-(2-((4-(3-(oxetan-3-yl)phenyl)thiazol-2-yl)amino)-2-oxoethyl)chromane-6-carboxamide]	–	–	–	–	–	–	0.1 to 1	> 95	>95	< 0.1
COc1cccc(-c2csc(NC(=O)[C@H](C)NC(=O)c3ccc4c(c3)[C@](C)(F)COC4)n2)c1 [Compound 309, (S)-4-fluoro-N-((S)-1-((4-(3-methoxyphenyl)thiazol-2-yl)amino)-1-oxopropan-2-yl)-4-methylisochromane-6-carboxamide]	0.1 to 1	> 95	>95	< 0.1	–	–	–	–	–	–
CC1(C#N)CCOc2ccc(C(=O)NCC(=O)Nc3nc(-c4cccc([C@@H]5CC5(F)F)c4)cs3)cc21 (stereo in doubt) [Compound 429, (S)-4-cyano-N-(2-((4-(3-((S)-2,2-difluorocyclopropyl)phenyl)thiazol-2-yl)amino)-2-oxoethyl)-4-methylchromane-6-carboxamide]	–	–	–	–	–	–	1 to 5	> 95	>95	< 0.1
COc1cc(-c2csc(NC(=O)CNC(=O)c3ccc4c(c3)[C@](C)(C#N)COC4)n2)ccn1 [Compound 400, (R)-4-cyano-N-(2-((4-(2-methoxypyridin-4-yl)thiazol-2-yl)amino)-2-oxoethyl)-4-methylisochromane-6-carboxamide]	0.1 to 1	> 95	>95	< 0.1	–	–	–	–	–	–

Next, values leading:

IC50 (BRG-1; [1]) [µM]	Emax (BRG-1; [2]) [%]	BRM Max % Inhibition (BRM) [%]	IC50 (BRM) [µM]	BRG1 Max % Inhibition (BRG-1; [1]) [%]	Emax (BRG-1; read-out: BRG1 Max % Inhibition, ATPase catalytic activity, ADP-Glo) [%]	IC50 (BRG-1; [3]) [µM]	Emax (BRG-1; [4]) [%]	BRM Max % Inhibition (BRM; 30 nM BRM, 400 μM ATP) [%]	IC50 (BRM; 30 nM BRM, 400 μM ATP) [µM]	SMILES
0.1 to 1	> 90	>90	< 0.1	–	–	–	–	–	–	O=C(CNC(=O)c1cccc(C2(C(F)F)COC2)c1)Nc1nc(-c2cccc(N3CCC3)c2)cs1 [Compound 362, N-(2-((4-(3-(azetidin-1-yl)phenyl)thiazol-2-yl)amino)-2-oxoethyl)-3-(3-(difluoromethyl)oxetan-3-yl)benzamide]
0.1 to 1	> 95	>95	< 0.1	–	–	–	–	–	–	Cc1cc(-c2cccc(-c3csc(NC(=O)CNC(=O)c4ccc5c(c4)[C@](C)(CO)CC5)n3)n2)ncn1 [Compound 203, (3R)-3-(hydroxymethyl)-3-methyl-N-[2-[[4-[6-(6-methylpyrimidin-4-yl)-2-pyridyl]thiazol-2-yl]amino]-2-oxo-ethyl]indane-5-carboxamide]
< 0.1	–	>95	< 0.1	>95	–	–	–	–	–	Cc1nccc(-c2cccc(-c3csc(NC(=O)CNC(=O)c4cccc(C(C)(C)CN)c4)n3)c2)n1 [Compound 100]
0.1 to 1	–	>80	0.1 to 1	>50	–	–	–	–	–	CC(C(F)(F)F)S(=O)(=O)c1cccc(C(=O)NCC(=O)Nc2nc(-c3cccc(-c4ccncc4)c3)cs2)c1 (stereo not shown) [Compound 113, N-(2-oxo-2-((4-(3-(pyridin-4-yl)phenyl)thiazol-2-yl)amino)ethyl)-3-((1,1,1-trifluoropropan-2-yl)sulfonyl)benzamide]
> 5	–	>90	0.1 to 1	–	> 90	–	–	–	–	COc1cccc(-c2csc(NC(=O)CNC(=O)c3ccc4c(c3)[C@@](C)(F)CCOC4)n2)c1 [Compound 278, (S)-5-fluoro-N-(2-((4-(3-methoxyphenyl)thiazol-2-yl)amino)-2-oxoethyl)-5-methyl-1,3,4,5-tetrahydrobenzo[c]oxepine-7-carboxamide]
–	–	–	–	–	–	0.1 to 1	> 95	>95	< 0.1	C[C@@H]1CN(c2cccc(-c3csc(NC(=O)CNC(=O)c4cncc(C(C)(C)C)c4)n3)c2)C[C@H](C)O1 [Compound 443, 5-(tert-butyl)-N-(2-((4-(3-((cis)-2,6-dimethylmorpholino)phenyl)thiazol-2-yl)amino)-2-oxoethyl)nicotinamide]
1 to 5	> 60	>90	0.1 to 1	–	–	–	–	–	–	Cn1ncc(-c2cccc(-c3csc(NC(=O)CNC(=O)c4cccc(C(C)(C)CO)c4)n3)n2)n1 [Compound 154, 3-(1-hydroxy-2-methylpropan-2-yl)-N-(2-((4-(6-(2-methyl-2H-1,2,3-triazol-4-yl)pyridin-2-yl)thiazol-2-yl)amino)-2-oxoethyl)benzamide]
0.1 to 1	> 80	>95	< 0.1	–	–	–	–	–	–	CC1(CO)CCc2ccc(C(=O)NCC(=O)Nc3nc(-c4cccc(-c5cccc(C#N)c5)c4)cs3)cc21 (stereo not shown) [Compound 233, N-[2-[[4-[3-(3-cyanophenyl)phenyl]thiazol-2-yl]amino]-2-oxo-ethyl]-3-(hydroxymethyl)-3-methyl-indane-5-carboxamide]
0.1 to 1	> 95	>90	< 0.1	–	–	–	–	–	–	Cc1cc(-c2cccc(-c3csc(NC(=O)CNC(=O)c4cccc(S(=O)(=O)C(C)CN)c4)n3)c2)cc(C)n1 (stereo not shown) [Compound 114, 3-((1-aminopropan-2-yl)sulfonyl)-N-(2-((4-(3-(2,6-dimethylpyridin-4-yl)phenyl)thiazol-2-yl)amino)-2-oxoethyl)benzamide]
1 to 5	> 90	>90	0.1 to 1	–	–	–	–	–	–	COc1cccc(-c2csc(NC(=O)CNC(=O)c3cc(F)c4c(c3)C(C)(O)COC4)n2)c1 (stereo in doubt) [Compound 280, (R)-8-fluoro-4-hydroxy-N-(2-((4-(3-methoxyphenyl)thiazol-2-yl)amino)-2-oxoethyl)-4-methylisochromane-6-carboxamide]
< 0.1	> 95	>95	< 0.1	–	–	–	–	–	–	Cc1cc(-c2cccc(-c3csc(NC(=O)CNC(=O)c4ccc5c(c4)[C@](C)(C#N)CC5)n3)n2)ncn1 [Compound 267, (3R)-3-cyano-3-methyl-N-[2-[[4-[6-(6-methylpyrimidin-4-yl)-2-pyridyl]thiazol-2-yl]amino]-2-oxo-ethyl]indane-5-carboxamide]
0.1 to 1	–	>95	< 0.1	>95	–	–	–	–	–	C[C@@]1(C#N)COCc2ccc(C(=O)NCC(=O)Nc3nc(-c4cccc(C5CCO5)c4)cs3)cc21 (stereo partly shown) [Compound 365]
0.1 to 1	> 50	>70	0.1 to 1	–	–	–	–	–	–	CCC(C)(O)c1cccc(C(=O)NCC(=O)Nc2nc(-c3cccc(-c4ccncc4)c3)cs2)c1 (stereo not shown) [Compound 79, 3-(2-hydroxybutan-2-yl)-N-(2-oxo-2-((4-(3-(pyridin-4-yl)phenyl)thiazol-2-yl)amino)ethyl)benzamide]
> 5	< 30	>50	1 to 5	–	–	–	–	–	–	Cc1cc(-c2cccc(-c3csc(NC(=O)CNC(=O)c4ccc5c(c4)[C@@](C)(CN)CCC5)n3)c2)cc(C)n1 [Compound 251, (4S)-4-(aminomethyl)-N-[2-[[4-[3-(2,6-dimethyl-4-pyridyl)phenyl]thiazol-2-yl]amino]-2-oxo-ethyl]-4-methyl-tetralin-6-carboxamide]
